This is an account of results in patent publication US20120115845A1, “THERAPEUTIC AGENTS” (priority 2007, published 2012).

Assay [1] has as its target T1, human GHS receptor (Homo sapiens, UniProt Q92847). In words: h bind IC50 (binding assay, Table 1). To be noted: human receptor; Table 1.
Assay [2] addresses T1, human GHS receptor. In words: Ghrelin IP1 agonist assay (IP1 HTRF). Further details: expressed in transfected cells; host or cells: HEK293s. The settings on record: for Emax: 2 h, agonist effect as % maximal effect of GHRP-6 (5 μM), read-out: h IP1 ag %; for EC50: HEK293s cells stably expressing human GHS receptor, 2 hours at 37° C., read-out: h IP1 ag EC50. Format: cell-based. A digest of the protocol:
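Cells: HEK293s stably expressing human GHS receptor, in stimulation buffer containing 0.02% fatty acid free BSA.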
(In general: TR-FRET usually uses a lanthanide donor and a delayed reading to cut background.)

T1 sequence (Q92847 whole entry): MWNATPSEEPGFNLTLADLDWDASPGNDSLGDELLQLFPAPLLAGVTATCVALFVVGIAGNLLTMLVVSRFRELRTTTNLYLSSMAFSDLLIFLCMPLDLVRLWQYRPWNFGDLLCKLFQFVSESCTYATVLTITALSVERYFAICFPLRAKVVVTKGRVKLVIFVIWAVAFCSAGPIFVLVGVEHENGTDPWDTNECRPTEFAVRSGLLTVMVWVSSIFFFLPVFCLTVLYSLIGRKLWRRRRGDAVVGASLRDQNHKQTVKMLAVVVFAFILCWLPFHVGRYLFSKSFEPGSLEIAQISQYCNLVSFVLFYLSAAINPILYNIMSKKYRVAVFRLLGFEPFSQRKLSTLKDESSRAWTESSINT

Usually IC50 stands for the concentration that gives 50% inhibition. High values mean weaker potency, low ones greater potency. Broadly, the EC50 is the concentration giving half of the maximal effect. For `CS(=O)(=O)c1ccc2nc(NC(=O)NC(=O)c3ccc(N4CCCC4)cc3Cl)sc2c1` [Example 117, 2-Chloro-N-[(6-methylsulfonylbenzothiazol-2-yl)carbamoyl]-4-pyrrolidin-1-yl-benzamide], the IC50 at human GHS receptor [1] was found to be 0.0378 µM. Further, at human GHS receptor [2], the Emax is 16.8% and the EC50 amounted to 0.0159 µM.
`CS(=O)(=O)c1ccc2nc(NC(=O)NC(=O)c3ccccc3Oc3ccccc3)sc2c1` [Example 127, N-[(6-Methylsulfonylbenzothiazol-2-yl)carbamoyl]-2-phenoxy-benzamide] returned an IC50 at human GHS receptor [1] of 0.0561 µM. For the same compound, at human GHS receptor [2], the Emax stood at 36.6% and the EC50 turned out to be 0.32 µM.
On the same counts, the results for `CC1CN(CCS(=O)(=O)c2ccc3nc(NC(=O)NC(=O)c4ccccc4Cl)sc3c2)CC(C)N1` (stereo not drawn) [Example 24, 2-Chloro-N-[[6-[2-(3,5-dimethylpiperazin-1-yl)ethylsulfonyl]benzothiazol-2-yl]carbamoyl]benzamide] are 0.0253 µM, 54% and 0.00643 µM.
`CN1CCCC(S(=O)(=O)c2ccc3nc(NC(=O)NC(=O)c4ccccc4Cl)sc3c2)C1` (stereo not drawn) [Example 166, 2-Chloro-N-[[6-[(1-methyl-3-piperidyl)sulfonyl]benzothiazol-2-yl]carbamoyl]benzamide] yielded an IC50 on human GHS receptor [1] of 0.28 µM. Moreover, on human GHS receptor [2], the Emax came to 53.9% and the EC50 is 0.0464 µM.
On the same counts, the results for `CC(C)N1CCC(S(=O)(=O)c2ccc3nc(NC(=O)NC(=O)c4ccccc4Cl)sc3c2)C1` (stereo not drawn) [Example 162, 2-Chloro-N-[[6-(1-propan-2-ylpyrrolidin-3-yl)sulfonylbenzothiazol-2-yl]carbamoyl]benzamide] are 0.296 µM, 48.3% and 0.0114 µM.
On the same counts, the results for `CN1CCN(c2ccc(Cl)c(C(=O)NC(=O)Nc3nc4ccc(S(C)(=O)=O)cc4s3)c2)CC1` [Example 59, 2-Chloro-5-(4-methylpiperazin-1-yl)-N-(6-(methylsulfonyl)benzothiazol-2-ylcarbamoyl)benzamide] are 0.207 µM, 0.377% and more than 9.3 µM.
In the case of `O=C(NC(=O)c1ccccc1Cl)Nc1nc2ccc(S(=O)(=O)CCN3CCNCC3)cc2s1` [Example 8, 2-Chloro-N-[[6-(2-piperazin-1-ylethylsulfonyl)benzothiazol-2-yl]carbamoyl]benzamide], the IC50 on human GHS receptor [1] worked out at 0.0696 µM. Further, on human GHS receptor [2], the Emax is 39.9% and the EC50 was 0.0364 µM.
On to `CN(C)S(=O)(=O)c1ccc2nc(NC(=O)NC(=O)c3ccccc3Cl)sc2c1` [Example 232, 2-chloro-N-[[6-(dimethylsulfamoyl)-1,3-benzothiazol-2-yl]carbamoyl] benzamide], for which the IC50 at human GHS receptor [1] was 0.0314 µM. Further, on human GHS receptor [2], the Emax came to 12.6% and the EC50 is 0.0561 µM.
On the same counts, the results for `O=C(NC(=O)c1ccccc1Cl)Nc1nc2ccc(S(=O)(=O)CCCCl)cc2s1` [Example 148, 2-Chloro-N-[[6-(3-chloropropylsulfonyl)benzothiazol-2-yl]carbamoyl]benzamide] are 0.83 µM, 17.7% and 0.0529 µM.
`COc1ccc(C(=O)NC(=O)Nc2nc3ccc(S(C)(=O)=O)cc3s2)c(Cl)c1OC` [Example 111, 2-Chloro-3,4-dimethoxy-N-[(6-methylsulfonylbenzothiazol-2-yl)carbamoyl]benzamide] showed an IC50 on human GHS receptor [1] of 1.27 µM. At human GHS receptor [2], the Emax was determined as 14.1% and the EC50 was determined as 0.335 µM.
Regarding `CS(=O)(=O)c1ccc2nc(NC(=O)NC(=O)c3cc(C(F)(F)F)ccc3Cl)sc2c1` [Example 181, 2-Chloro-N-[(6-methylsulfonylbenzothiazol-2-yl)carbamoyl]-5-(trifluoromethyl)benzamide], on human GHS receptor [1], the IC50 came out at 0.049 µM. Moreover, at human GHS receptor [2], the Emax came out at 54.4% and the EC50 came to 0.000633 µM.
On the same counts, the results for `Cc1ccc(F)c(C(=O)NC(=O)Nc2nc3ccc(S(C)(=O)=O)cc3s2)c1Cl` [Example 194, 2-Chloro-6-fluoro-3-methyl-N-[(6-methylsulfonylbenzothiazol-2-yl)carbamoyl]benzamide] are 0.172 µM, 39.4% and 0.00952 µM.
On the same counts, the results for `CN1CC(Oc2ccc(Cl)c(C(=O)NC(=O)Nc3nc4ccc(S(C)(=O)=O)cc4s3)c2)C1` [Example 257, 2-chloro-5-(1-methylazetidin-3-yloxy)-N-(6-(methylsulfonyl)benzo[d]thiazol-2-ylcarbamoyl) benzamide] are 0.846 µM, 13.1% and not below 20 µM.
On the same counts, the results for `CN(C)CCOCCS(=O)(=O)c1ccc2nc(NC(=O)NC(=O)c3ccccc3Cl)sc2c1` [Example 43, 2-Chloro-N-[[6-[2-(2-dimethylaminoethoxy)ethylsulfonyl]benzothiazol-2-yl]carbamoyl]benzamide] are 0.0517 µM, 46% and 0.0422 µM.
Compound `CN1CCCN(CCCS(=O)(=O)c2ccc3nc(NC(=O)NC(=O)c4cc(I)ccc4Cl)sc3c2)CC1` [Example 238, 2-chloro-5-iodo-N-(6-(3-(4-methyl-1,4-diazepan-1-yl)propylsulfonyl)benzo[d]thiazol-2-ylcarbamoyl) benzamide] returned an IC50 at human GHS receptor [1] of 0.00047 µM. Moreover, on human GHS receptor [2], the Emax came to 9.98% and the concentration for a half-maximal effect (EC50) came to 0.0434 µM.
`COc1cc(Cl)c(C(=O)NC(=O)Nc2nc3ccc(S(=O)(=O)CCCN4CCN(C)CC4)cc3s2)cc1-n1cccn1` [Example 242, 2-chloro-4-methoxy-N-(6-(3-(4-methylpiperazin-1-yl)propylsulfonyl)benzo[d]thiazol-2-ylcarbamoyl) 5-(1H-pyrazol-1-yl)benzamide]: the IC50 at human GHS receptor [1] is 0.00062 µM. Moreover, at human GHS receptor [2], the Emax amounted to 9.32% and the EC50 was not below 20 µM.
Consider `CC(C)(C)OC(=O)N1CCC(CCS(=O)(=O)c2ccc3nc(NC(=O)NC(=O)c4ccccc4Cl)sc3c2)CC1` [Example 218, tert-Butyl 4-[2-[2-[(2-chlorobenzoyl)carbamoylamino]benzothiazol-6-yl]sulfonylethyl]piperidine-1-carboxylate], for which the IC50 at human GHS receptor [1] is 0.0223 µM. Moreover, at human GHS receptor [2], the Emax was determined as 39.2% and the EC50 was 0.0185 µM.
On the same counts, the results for `Cc1ccn(-c2ccc(C(=O)NC(=O)Nc3nc4ccc(S(=O)(=O)CCCN5CCN(C)CC5)cc4s3)c(Cl)c2)n1` [Example 212, 2-Chloro-N-[[6-[3-(4-methylpiperazin-1-yl)propylsulfonyl]benzothiazol-2-yl]carbamoyl]-4-(3-methylpyrazol-1-yl)benzamide] are 0.0005 µM, 27.6% and 0.00203 µM.
For the compound `CS(=O)(=O)c1ccc2nc(NC(=O)NC(=O)c3ccccc3Cl)sc2c1` [Example 102, 2-Chloro-N-[(6-methylsulfonylbenzothiazol-2-yl)carbamoyl]benzamide], on human GHS receptor [1], the IC50 amounted to 0.116 µM. On human GHS receptor [2], the Emax was 24.2% and the EC50 stood at 0.0578 µM.
Compound `O=C(NC(=O)c1ccccc1Cl)Nc1nc2ccc(S(=O)(=O)CCO)cc2s1` [Example 41, 2-Chloro-N-[[6-(2-hydroxyethylsulfonyl)benzothiazol-2-yl]carbamoyl]benzamide] gave an IC50 on human GHS receptor [1] of 0.535 µM. Further, at human GHS receptor [2], the Emax was 18.1% and the EC50 turned out to be 0.0958 µM.
